Source: patent publication US10004701B2, “Methods and compositions for treating infection” (UNIVERSITY OF ROCHESTER, priority 2012, dated 2018)
Structures can show the parent of a compound that is named as a salt. Where two headings read alike, the source gives them in different places.

Legend:
Test in all cases: AK assay 384-well format, Prestwick library screening
[1] = test system: S. aureus strain USA300-0114; format: cell-based, Staphylococcus aureus; settings: 50 μM final drug concentration; for fold induction at 50 µM: Staphylococcus aureus, USA300, 3 h
E. coli = format: cell-based, Escherichia coli; settings: 50 μM final drug concentration; for fold induction at 50 µM: Escherichia coli, 3 h
E. cloacae = format: cell-based, Enterobacter cloacae; settings: 50 μM final drug concentration; for fold induction at 50 µM: Enterobacter cloacae, 3 h
[2] = test system: A. baumannii strain 98-37-09; format: cell-based, Acinetobacter baumannii; settings: 50 μM final drug concentration; for fold induction at 50 µM: Acinetobacter baumannii, 983709, 3 h
P. aeruginosa = format: cell-based, Pseudomonas aeruginosa; settings: 50 μM final drug concentration; for fold induction at 50 µM: Pseudomonas aeruginosa, 3 h
K. pneumoniae = format: cell-based, Klebsiella pneumoniae; settings: 50 μM final drug concentration; for fold induction at 50 µM: Klebsiella pneumoniae, 3 h
E. faecium = format: cell-based, Enterococcus faecium; settings: 50 μM final drug concentration; for fold induction at 50 µM: Enterococcus faecium, 3 h
[3] = planktonic S. aureus, cutoff for positive-scoring molecules 3-fold increase
[4] = planktonic E. coli, cutoff for positive-scoring molecules 3-fold increase
[5] = planktonic E. cloacae, cutoff for positive-scoring molecules 3-fold increase
[6] = planktonic A. baumannii, cutoff for positive-scoring molecules 3-fold increase
[7] = planktonic P. aeruginosa, cutoff for positive-scoring molecules 3-fold increase
[8] = planktonic K. pneumoniae, cutoff for positive-scoring molecules 3-fold increase
[9] = planktonic E. faecium, cutoff for positive-scoring molecules 3-fold increase
[10] = planktonic, cutoff for positive 3-fold increase, read-out: AK-based Prestwick Library Screening Results, S. aureus (fold increase in extracellular AK activity)
[11] = planktonic, cutoff for positive 3-fold increase, read-out: AK-based Prestwick Library Screening Results, E. coli (fold increase in extracellular AK activity)
[12] = planktonic, cutoff for positive 3-fold increase, read-out: AK-based Prestwick Library Screening Results, E. cloacae (fold increase in extracellular AK activity)
[13] = planktonic, cutoff for positive 3-fold increase, read-out: AK-based Prestwick Library Screening Results, A. baumannii (fold increase in extracellular AK activity)
[14] = planktonic, cutoff for positive 3-fold increase, read-out: AK-based Prestwick Library Screening Results, P. aeruginosa (fold increase in extracellular AK activity)
[15] = planktonic, cutoff for positive 3-fold increase, read-out: AK-based Prestwick Library Screening Results, K. pneumoniae (fold increase in extracellular AK activity)
[16] = planktonic, cutoff for positive 3-fold increase, read-out: AK-based Prestwick Library Screening Results, E. faecium (fold increase in extracellular AK activity)
[17] = planktonic S. aureus, positive cutoff 3-fold increase, read-out: AK-based Prestwick library screening result, S. aureus (fold increase in extracellular AK activity)
[18] = planktonic E. coli, positive cutoff 3-fold increase, read-out: AK-based Prestwick library screening result, E. coli (fold increase in extracellular AK activity)
[19] = planktonic E. cloacae, positive cutoff 3-fold increase, read-out: AK-based Prestwick library screening result, E. cloacae (fold increase in extracellular AK activity)
[20] = planktonic A. baumannii, positive cutoff 3-fold increase, read-out: AK-based Prestwick library screening result, A. baumannii (fold increase in extracellular AK activity)
[21] = planktonic P. aeruginosa, positive cutoff 3-fold increase, read-out: AK-based Prestwick library screening result, P. aeruginosa (fold increase in extracellular AK activity)
[22] = planktonic K. pneumoniae, positive cutoff 3-fold increase, read-out: AK-based Prestwick library screening result, K. pneumoniae (fold increase in extracellular AK activity)
[23] = planktonic E. faecium, positive cutoff 3-fold increase, read-out: AK-based Prestwick library screening result, E. faecium (fold increase in extracellular AK activity)

CC(=O)c1ccc2c(c1)N(CCCN(C)C)c1ccccc1S2.O=C(O)/C=C\C(=O)O [Acetopromazine maleate salt]
AK-based Prestwick Library Screening Results, S. aureus (increase in extracellular AK activity) [1, 3]: 0.8
AK-based Prestwick Library Screening Results, E. coli (increase in extracellular AK activity) (E. coli; [4]): 0.8
AK-based Prestwick Library Screening Results, E. cloacae (increase in extracellular AK activity) (E. cloacae; [5]): 0.8
AK-based Prestwick Library Screening Results, A. baumannii (increase in extracellular AK activity) [2, 6]: 0.8
AK-based Prestwick Library Screening Results, P. aeruginosa (increase in extracellular AK activity) (P. aeruginosa; [7]): 0.7
AK-based Prestwick Library Screening Results, K. pneumoniae (increase in extracellular AK activity) (K. pneumoniae; [8]): 0.6
AK-based Prestwick Library Screening Results, E. faecium (increase in extracellular AK activity) (E. faecium; [9]): 1.0

C[C@]12CCC(=O)C=C1CC[C@@H]1[C@@H]2C(=O)C[C@]2(C)C(=O)CC[C@@H]12 [Adrenosterone]
AK-based Prestwick Library Screening Results, S. aureus (fold increase in extracellular AK activity) ([1]; planktonic, […]): 0.6
AK-based Prestwick Library Screening Results, E. coli (fold increase in extracellular AK activity) (E. coli; planktonic, […]): 0.7
AK-based Prestwick Library Screening Results, E. cloacae (fold increase in extracellular AK activity) (E. cloacae; planktonic, […]): 1.2
AK-based Prestwick Library Screening Results, A. baumannii (fold increase in extracellular AK activity) ([2]; planktonic, […]): 0.8
AK-based Prestwick Library Screening Results, P. aeruginosa (fold increase in extracellular AK activity) (P. aeruginosa; planktonic, […]): 0.6
AK-based Prestwick Library Screening Results, K. pneumoniae (fold increase in extracellular AK activity) (K. pneumoniae; planktonic, […]): 0.6
AK-based Prestwick Library Screening Results, E. faecium (fold increase in extracellular AK activity) (E. faecium; planktonic, […]): 0.9

Cc1cccc(C)c1NC(=O)CN1CCN(CCCC(c2ccc(F)cc2)c2ccc(F)cc2)CC1 [Lidoflazine]
fold induction at 50 µM [1, 10]: 1.4
fold induction at 50 µM (E. coli; [11]): 1.4
fold induction at 50 µM (E. cloacae; [12]): 1.4
fold induction at 50 µM [2, 13]: 2.9
fold induction at 50 µM (P. aeruginosa; [14]): 1.3
fold induction at 50 µM (K. pneumoniae; [15]): 1.1
fold induction at 50 µM (E. faecium; [16]): 1

COc1ccccc1OCC(O)CO (centres unmarked) [Guaifenesin]
fold induction at 50 µM ([1]; […], read-out: AK-based Prestwick Library Screening Results, S. aureus (fold increase in extracellular AK activity)): 1.2
fold induction at 50 µM (E. coli; […], read-out: AK-based Prestwick Library Screening Results, E. coli (fold increase in extracellular AK activity)): 1.1
fold induction at 50 µM (E. cloacae; […], read-out: AK-based Prestwick Library Screening Results, E. cloacae (fold increase in extracellular AK activity)): 1.6
fold induction at 50 µM ([2]; […], read-out: AK-based Prestwick Library Screening Results, A. baumannii (fold increase in extracellular AK activity)): 1
fold induction at 50 µM (P. aeruginosa; […], read-out: AK-based Prestwick Library Screening Results, P. aeruginosa (fold increase in extracellular AK activity)): 1.1
fold induction at 50 µM (K. pneumoniae; […], read-out: AK-based Prestwick Library Screening Results, K. pneumoniae (fold increase in extracellular AK activity)): 0.8
fold induction at 50 µM (E. faecium; […], read-out: AK-based Prestwick Library Screening Results, E. faecium (fold increase in extracellular AK activity)): 1

Cc1cccc(N(C)C(=S)Oc2ccc3ccccc3c2)c1 [Tolnaftate]
fold induction at 50 µM ([1]; planktonic S. aureus, 384-well, cutoff for positive-scoring molecules 3-fold increase, read-out: AK-based Prestwick Library Screening Results: S. aureus (increase in extracellular AK activity)): 1.3
fold induction at 50 µM (E. coli; planktonic E. coli, 384-well, cutoff for positive-scoring molecules 3-fold increase, read-out: AK-based Prestwick Library Screening Results: E. coli (increase in extracellular AK activity)): 1.1
fold induction at 50 µM (E. cloacae; planktonic E. cloacae, 384-well, cutoff for positive-scoring molecules 3-fold increase, read-out: AK-based Prestwick Library Screening Results: E. cloacae (increase in extracellular AK activity)): 1.2
fold induction at 50 µM ([2]; planktonic A. baumannii, 384-well, cutoff for positive-scoring molecules 3-fold increase, read-out: AK-based Prestwick Library Screening Results: A. baumannii (increase in extracellular AK activity)): 1.5
fold induction at 50 µM (P. aeruginosa; planktonic P. aeruginosa, 384-well, cutoff for positive-scoring molecules 3-fold increase, read-out: AK-based Prestwick Library Screening Results: P. aeruginosa (increase in extracellular AK activity)): 1
fold induction at 50 µM (K. pneumoniae; planktonic K. pneumoniae, 384-well, cutoff for positive-scoring molecules 3-fold increase, read-out: AK-based Prestwick Library Screening Results: K. pneumoniae (increase in extracellular AK activity)): 0.9
fold induction at 50 µM (E. faecium; planktonic E. faecium, 384-well, cutoff for positive-scoring molecules 3-fold increase, read-out: AK-based Prestwick Library Screening Results: E. faecium (increase in extracellular AK activity)): 1

C/C=C(/C(=C/C)c1ccc(O)cc1)c1ccc(O)cc1 [Dienestrol]
fold induction at 50 µM ([1]; cutoff for positive-scoring molecules 3-fold increase, read-out: AK-based Prestwick Library Screening Results, S. aureus (fold increase in extracellular AK activity)): 0.4
fold induction at 50 µM (E. coli; cutoff for positive-scoring molecules 3-fold increase, read-out: AK-based Prestwick Library Screening Results, E. coli (fold increase in extracellular AK activity)): 1.1
fold induction at 50 µM (E. cloacae; cutoff for positive-scoring molecules 3-fold increase, read-out: AK-based Prestwick Library Screening Results, E. cloacae (fold increase in extracellular AK activity)): 21.9
fold induction at 50 µM ([2]; cutoff for positive-scoring molecules 3-fold increase, read-out: AK-based Prestwick Library Screening Results, A. baumannii (fold increase in extracellular AK activity)): 3.2
fold induction at 50 µM (P. aeruginosa; cutoff for positive-scoring molecules 3-fold increase, read-out: AK-based Prestwick Library Screening Results, P. aeruginosa (fold increase in extracellular AK activity)): 1.1
fold induction at 50 µM (K. pneumoniae; cutoff for positive-scoring molecules 3-fold increase, read-out: AK-based Prestwick Library Screening Results, K. pneumoniae (fold increase in extracellular AK activity)): 0.9
fold induction at 50 µM (E. faecium; cutoff for positive-scoring molecules 3-fold increase, read-out: AK-based Prestwick Library Screening Results, E. faecium (fold increase in extracellular AK activity)): 1.3

Cc1cn([C@H]2C[C@H](N=[N+]=[N-])[C@@H](CO)O2)c(=O)[nH]c1=O [Zidovudine, AZT]
AK-based Prestwick Library Screening Results, S. aureus (increase in extracellular AK activity) [1, 3]: 0.6
AK-based Prestwick Library Screening Results, E. coli (increase in extracellular AK activity) (E. coli; [4]): 2.1
AK-based Prestwick Library Screening Results, E. cloacae (increase in extracellular AK activity) (E. cloacae; [5]): 4.2
AK-based Prestwick Library Screening Results, A. baumannii (increase in extracellular AK activity) [2, 6]: 1.8
AK-based Prestwick Library Screening Results, P. aeruginosa (increase in extracellular AK activity) (P. aeruginosa; [7]): 0.6
AK-based Prestwick Library Screening Results, K. pneumoniae (increase in extracellular AK activity) (K. pneumoniae; [8]): 1.2
AK-based Prestwick Library Screening Results, E. faecium (increase in extracellular AK activity) (E. faecium; [9]): 0.9

COc1ccc([C@@H]2CC(=O)c3c(O)cc(O[C@@H]4O[C@H](CO[C@@H]5O[C@@H](C)[C@H](O)[C@@H](O)[C@H]5O)[C@@H](O)[C@H](O)[C@H]4O)cc3O2)cc1O [Hesperidin]
AK-based Prestwick Library Screening Results, S. aureus (fold increase in extracellular AK activity) ([1]; planktonic, […]): 1.3
AK-based Prestwick Library Screening Results, E. coli (fold increase in extracellular AK activity) (E. coli; planktonic, […]): 1.1
AK-based Prestwick Library Screening Results, E. cloacae (fold increase in extracellular AK activity) (E. cloacae; planktonic, […]): 1.4
AK-based Prestwick Library Screening Results, A. baumannii (fold increase in extracellular AK activity) ([2]; planktonic, […]): 1.2
AK-based Prestwick Library Screening Results, P. aeruginosa (fold increase in extracellular AK activity) (P. aeruginosa; planktonic, […]): 1.0
AK-based Prestwick Library Screening Results, K. pneumoniae (fold increase in extracellular AK activity) (K. pneumoniae; planktonic, […]): 1.0
AK-based Prestwick Library Screening Results, E. faecium (fold increase in extracellular AK activity) (E. faecium; planktonic, […]): 1.1

CNC1(C)C2CCC(C2)C1(C)C (centres unmarked) [Mecamylamine hydrochloride]
fold induction at 50 µM [1, 17]: 1.4
fold induction at 50 µM (E. coli; [18]): 1.4
fold induction at 50 µM (E. cloacae; [19]): 1.6
fold induction at 50 µM [2, 20]: 1.2
fold induction at 50 µM (P. aeruginosa; [21]): 1.1
fold induction at 50 µM (K. pneumoniae; [22]): 1
fold induction at 50 µM (E. faecium; [23]): 1.1

Nc1cc(C(Cl)=C(Cl)Cl)c(S(N)(=O)=O)cc1S(N)(=O)=O [Clorsulon]
fold induction at 50 µM [1, 10]: 1.5
fold induction at 50 µM (E. coli; [11]): 1
fold induction at 50 µM (E. cloacae; [12]): 1.7
fold induction at 50 µM [2, 13]: 1
fold induction at 50 µM (P. aeruginosa; [14]): 1.1
fold induction at 50 µM (K. pneumoniae; [15]): 1
fold induction at 50 µM (E. faecium; [16]): 1.4

CC1CCc2c(N3CCC(O)CC3)c(F)cc3c(=O)c(C(=O)O)cn1c23 (centres unmarked) [Nadifloxacin]
fold induction at 50 µM [1, 17]: 4.3
fold induction at 50 µM (E. coli; [18]): 13.4
fold induction at 50 µM (E. cloacae; [19]): 1.7
fold induction at 50 µM [2, 20]: 2.9
fold induction at 50 µM (P. aeruginosa; [21]): 17.7
fold induction at 50 µM (K. pneumoniae; [22]): 5.2
fold induction at 50 µM (E. faecium; [23]): 2.8
